Measurements: PMC2559818 (BMC Clinical Pharmacology, 2008)
Several values for one entry are separate records, joined by “and”; a condition that tells them apart may be missing. Identical values can stand only once.

Experiments:
[1] = Long-term Pt levels in plasma of treated patients (ICP-MS); format: in vivo; details: patients treated 8 to 75 months before
Description: Whole blood samples for Pt analysis were collected in 10 mL EDTA containing tubes (Becton Dickinson Vacutainer Systems, Plymouth, UK). EDTA was preferred above heparin because the fraction peripheral blood mononuclear cells (PBMCs) could be isolated easier from EDTA plasma. […] Plasma was obtained by centrifuging the whole blood samples for 15 min (1,000 g, 4°C). The fraction containing PBMCs was isolated from the whole blood sample using the method described by Pluim et al [13]. PUF was obtained by centrifuging the plasma fraction through 3 and 30 kDa cut-off ultrafiltrate filter (Centriplus Millipore Corporation, Bedford, MA, USA) for 30 min (1,000 g, 20°C). […] All samples were stored at -20°C until analysis.
Pt analyses were performed using an ICP-MS and a validated method described previously [15]. Pt levels were assessed in plasma, pUF, and bound to DNA in PBMCs. DNA was isolated from PBMCs using a method described by Pluim et al [13]. Before ICP-MS analysis, the DNA was hydrolysed in 1% (v/v) HNO3 solution at 70°C. The limit of quantification (LLOQ) of the method was 20 ng/L for plasma, 7.5 ng/L for pUF, and the absolute sensitivity for Pt bound to DNA was 0.75 pg Pt (7.5 fg Pt per μg DNA when using 100 μg DNA). The LLOQs were determined on the basis of five times the noise in blank matrix solutions.

[2] = Long-term Pt levels in plasma ultrafiltrate (pUF) of treated patients (ICP-MS); format: in vivo, human; details: pUF prepared after sampling
Description: Whole blood samples for Pt analysis were collected in 10 mL EDTA containing tubes (Becton Dickinson Vacutainer Systems, Plymouth, UK). […] Plasma was obtained by centrifuging the whole blood samples for 15 min (1,000 g, 4°C). […] PUF was obtained by centrifuging the plasma fraction through 3 and 30 kDa cut-off ultrafiltrate filter (Centriplus Millipore Corporation, Bedford, MA, USA) for 30 min (1,000 g, 20°C). […] All samples were stored at -20°C until analysis.
Pt analyses were performed using an ICP-MS and a validated method described previously [15]. Pt levels were assessed in plasma, pUF, and bound to DNA in PBMCs.

[3] = test system: calf thymus DNA; experiment: Assessment of DNA binding activity of Pt in pUF (ex vivo incubation); details: for DNA binding of Pt in patient pUF samples: pUF of two treated patients per drug; for DNA binding of Pt in patient pUF samples / Added Pt bound to DNA: five-day incubation with calf thymus DNA; for Added Pt bound to DNA: parent compound added to pUF of healthy volunteers; for Total binding capacity of equivalent concentrations of parent compound recovered (average): patient pUF, more than 8 months after end of treatment
Description: The latter was done to assess the binding capacity of the parent compounds at concentrations in the same range as the patients samples. After a five-day incubation to achieve a maximal Pt-DNA binding, the DNA was precipitated, washed and dissolved in water as described by Brouwers et al. After hydrolysis, the Pt-DNA binding was assessed.

[4] = test system: plasma proteins; experiment: Ex vivo assessment of protein binding capacity of Pt in pUF (plasma storage); format: in vitro ADME, human
Description: Pt concentrations analysed in pUF prepared after storage were compared to Pt concentrations analysed in pUF which was prepared immediately after blood sampling. Additionally, plasma samples were reanalyzed to assess whether or not Pt concentrations in plasma were reduced during storage due to adsorption to the tubes.

[5] = test system: plasma proteins; experiment: Ex vivo activity of STS (release of Pt from plasma proteins); format: in vitro ADME, human; details: for Percentage of plasma Pt recovered in pUF after STS incubation: 750 μL plasma + 25 μL 250 g/L STS
Description: Therefore, 750 μL of plasma were incubated with 25 μL of a 250 g/L STS solution. As control, 750 μL of plasma were incubated with 25 μL of water. After incubation, pUF was prepared and Pt concentrations of the STS incubated samples and control samples were compared. Protein concentrations in the ultrafiltrates were analysed using a 2-D Quant Kit (GE healthcare Bio-Sciences AB, Uppsala, Sweden).

[6] = Effects of determinants on in vivo plasma Pt levels (NONMEM modelling)
Description: Additionally, serum creatinine was assessed at the time of study.
Possible relationships between determinants and Pt levels were evaluated using non-linear mixed effects modeling using NONMEM software (Version V1) (GloboMax LLC, Ellicott city, MD, USA). The first order conditional estimation method was used throughout. It was assumed that, due to the long follow-up, the treatment period was negligible compared to the follow-up time. The significance of established relationships was assessed using the likelihood ratio test.

[7] = Renal function (MDRD GFR) at chemotherapy and at follow-up; format: in vivo, human
Description: Differences between Pt levels of cisplatin and oxaliplatin treated patients, control cancer patients, and healthy controls were evaluated using the Mann-Whitney U test. The Wilcoxon signed rank test was used to test the difference between the renal function at the time of chemotherapy and at follow-up. Correlations between plasma and pUF level of Pt treated patients were evaluated by the Pearson correlation coefficient. SPSS was used to perform these tests.
Pt levels were proportional to the cumulative dose. […] An association between GSTT1,GSTM1, and GSTP1 genotypes and Pt levels could not be established. The effect of the renal function on Pt levels was evaluated using the glomerular filtration rate (GFR) which was calculated with the 'Modification of Diet in Renal Disease (MDRD)'-formula [21]. […] Figure 3 and 4 show the MDRD GFR for patients at the start of their chemotherapy treatment and at follow-up. […] Long-term plasma Pt concentrations were lower when the GFR at the time of chemotherapy was higher.

[8] = plasma stored at -30°C for 144-278 days
[9] = individual patient plasma samples
[10] = two-compartment model, per compound

O=C1[O][Pt]2([NH][C@@H]3CCCC[C@H]3[NH]2)[O]C1=O [Oxaliplatin, oxaliplatin]
Plasma Pt levels relative to mean level of unexposed controls [1]: > 30 fold | Percentage of plasma Pt recovered in pUF (average) [2]: 24.2% | DNA binding of Pt in patient pUF samples [3]: 0.78% and 1.1% | Added Pt bound to DNA [3]: 21% | Total binding capacity of equivalent concentrations of parent compound recovered (average) [3]: 4.3% | Percentage of plasma Pt recovered in pUF after storage ([4]; individual patient samples, 144-278 days of storage at -30°C): 25.2 and 21.2 and 16 and 15.8 | Percentage of plasma Pt recovered in pUF before storage ([4]; individual patient samples, pUF prepared immediately after blood sampling): 28.2 and 27.8 and 25.9 and 22.9 | Decrease in Pt concentrations in pUF after storage (average) [4, 8]: 26% | Plasma Pt concentrations over storage time [4, 8]: remained constant over time | Factor increase of Pt in pUF after STS incubation [5, 9]: 1.5-fold and 1.4-fold and 2.0-fold | Percentage of plasma Pt recovered in pUF after STS incubation [5, 9]: 40.4 and 46.2 and 39.5 and 38.7 | Percentage of plasma Pt recovered in pUF ([5]; individual patient plasma samples, control incubation with water): 27.2 and 32.2 and 20 and 26.5 | Increase in Pt pUF concentrations in samples prepared from STS treated plasma ([5]; over four samples per drug): 1.6 fold | First elimination half-life (t1/2) of plasma Pt [6, 10]: 1.37 months | Second elimination half-life (t1/2) of plasma Pt [6, 10]: 535 months | GFR at the time of the current study (follow-up) ([7]; MDRD formula): 61 mL/min/1.73 m^2 | Median GFR before start of the Pt chemotherapy ([7]; MDRD formula): 65 mL/min/1.73 m^2

O=S([O-])([O-])=S.[Na+].[Na+] [STS, sodium thiosulfate]
Reduction in long-term plasma Pt levels ([6]; STS co-administration with intra-arterial cisplatin, p < 0.001): 71%

N.N.[Cl][Pt][Cl] [Cisplatin, cisplatin]
DNA binding of Pt in patient pUF samples [3]: 1.8% and 2.4% | Added Pt bound to DNA [3]: 21% | Total binding capacity of equivalent concentrations of parent compound recovered (average) [3]: 10% | Factor increase of Pt in pUF after STS incubation [5, 9]: 1.4-fold and 2.7-fold and 2.3-fold and 2.9-fold | Percentage of plasma Pt recovered in pUF after STS incubation [5, 9]: 17.5 and 34.9 and 30.7 and 36.6 | GFR at the time of the current study (follow-up) ([7]; in vivo): 55 mL/min/1.73 m^2 | Median GFR before start of the Pt chemotherapy ([7]; in vivo): 78 mL/min/1.73 m^2
